Measured values published in patent publication US20090028925A1, “Novel Phosphinic Acid-Containing Thyromimetics” (priority 2005, published 2009).
Blank lines part the entries; values can stand above or below the molecule they belong to.

Assays:
[1] = effects on cholesterol and TSH at the same or not pharmacologically different doses; cited from earlier work
[2] = in the monkey; cited from earlier work
[3] = rodent models and monkeys; cited from earlier work
human hepatoma cells = settings: via thyroid hormone receptor activation; cited from earlier work
[4] = Continuous infusion study in rats on a cholesterol-containing diet; assay type: in vivo; settings: continuous infusion 1 mg/kg/day
Method: Screening for thyromimetic activity was performed in normal rats maintained on a cholesterol-containing diet. Compounds were administered by continuous infusion using an osmotic pump at 1 mg/kg/day.

[5] = Subacute study in cholesterol-fed rats, IP: heart weight and heart mGPDH activity
Method: The cholesterol-fed rat is an animal model of hypercholesterolemia generated by feeding the animals a diet with high cholesterol content.
Serum cholesterol values were assessed and the animals randomized into groups for treatment.

serum cholesterol = test: Subacute study in cholesterol-fed rats, IP: serum cholesterol; assay type: in vivo; settings: IP once-a-day for seven days
[6] = Tissue distribution and pharmacokinetics following IP administration to normal rats; assay type: in vivo, SD rats; settings: 10 mg/kg IP
Source text: At pre-selected time points following dosing, the rats were anesthetized using iso-fluorane and the peritoneal cavity was then opened and a blood sample was obtained from the abdominal vena cava. In addition, liver, kidney, and heart were excised and immersed in 3 volumes of cold 60% acetonitrile. The blood samples were briefly centrifuged and the plasma fraction was then extracted with 1.5 volumes of methanol, processed, and analyzed by LC-UV as described in Example G. The frozen liver, kidney, and heart tissue were homogenized in 60% v/v acetonitrile, centrifuged, and then analyzed by LC-UV. Pharmacokinetic parameters and AUC of the plasma and tissue concentration-time profiles were determined noncompartmentally by WinNonLin.

[7] = tested on: liver mitochondrial glycerol phosphate dehydrogenase (mGPDH) activity; test: Subacute study in normal rats, continuous infusion: liver mGPDH activity; assay type: in vivo, rats (Sprague-Dawley); settings: continuous infusion 1 mg/kg/day
Source text: (§1) Efficacy endpoints include serum cholesterol, liver mitochondrial glycerol phosphate dehydrogenase (mGPDH) activity and the expression of relevant liver genes (e.g., the LDL-receptor, apoB, cpt-1, spot14 and apoAI). Safety parameters include heart weight, heart rate, heart mGPDH activity, the expression and key genes involved in cardiac structure and function (e.g., Serca2, HCN2, Kv1.5, MHCα, MHCβ, Alpha1c), and standard plasma chemistry analysis (liver enzymes, electrolytes, creatinine). Endocrine effects are monitored by analysis of serum thyroid stimulating hormone (TSH). [Taylor et al., Mol Pharmacol 52(3): 542-7 (1997); Weitzel et al., Eur J Biochem 268(14):4095-4103 (2001)]
(§2) Methods: mGPDH activity was analyzed in isolated mitochondria using 2-(4-iodophenyl)-3-(4-nitrophenyl)-5-phenyl tetrazolium chloride as the terminal electron acceptor (Gardner R S, Analytical Biochemistry 59:272 (1974)). Commercially available GPDH was used in each assay as a standard (Sigma, St. Louis, Mo.). Changes in levels of mRNA for liver and heart genes are analyzed using reverse transcriptase followed by real-time PCR analysis. The analysis is performed using an iCycler instrument (Biorad) and appropriate primers by means of standard methodology [e.g., Schwab D A et al. (2000) Life Sciences 66: 1683-94]. The amounts of mRNA are normalized to an internal control, typically, cyclophilin. Serum TSH is measured using an enzyme immunoassay (EIA) kit designed for rat TSH (Amersham Pharmacia Biotech, Arlington Heights, Ill.).
(§3) Normal rats (Sprague-Dawley) were maintained on a standard diet. […] The compounds were brought up to an appropriate volume using PBS and BSA to maintain solubility within the pump. The compounds were chemically stable in the excipient at 37° C. for 7 days.
(§4) Values are expressed as percent of control. (Table 4)

heart mGPDH activity = test: Subacute study in normal rats, continuous infusion: heart mGPDH activity; assay type: in vivo, rats (Sprague-Dawley); settings: continuous infusion 1 mg/kg/day
Source text: as §1, §2, §3, §4

[8] = Subacute study in normal rats, continuous infusion: heart weight; assay type: in vivo, rats (Sprague-Dawley); settings: continuous infusion 1 mg/kg/day
Source text: as §1, §3, §4

liver triglycerides = test: Hepatic triglyceride content in normal rats, chronic infusion; assay type: in vivo; settings: normal rats chronically infused for 7 days
Method: Normal rats were chronically infused with Compound 7 for 7 days. Liver triglycerides were analyzed following lipid extraction by the Bligh Dyer method (Bligh E G and Dyer W J, A rapid method of total lipid extraction and purification. Can J Med. Sci. 1959 (August); 37(8):911-7, incorporated herein by reference). Total triglycerides were analyzed in the liver extracts by an enzymatic assay (Thermo Electron Corporation). Total lipid was normalized to initial liver weight and triglyceride content was normalized to liver weight. […] There was a 4% reduction in liver triglycerides for this group and the results were not statistically significant.

[9] = Whole animal resting oxygen consumption; assay type: in vivo, Sprague Dawley rats
Method: Thermogenesis is a measurement of energy consumption. Compounds that increase thermogenesis are likely to increase caloric expenditure and thereby cause body weight loss and its associated benefits to metabolic status (e.g., insulin sensitivity). Thermogenesis is assessed in subcellular fractions of various tissues, isolated cells, whole tissues, or in whole animals using changes in oxygen consumption as the endpoint. Oxygen is used up when calories are burned by various metabolic processes. Methods: Animals are dosed once or several times a day via a parenteral or oral route for a treatment period ranging from 1 day to several weeks. Oxygen consumption is measured following a single or multiple days of treatment. In one assay, whole animal oxygen consumption is measured using an indirect calorimeter (Oxymax, Columbus Instruments, Columbus, Ohio). Animals are removed from their cages and placed in the chambers. The resting oxygen consumption is measured in animals during periods of inactivity as measured by activity monitors. The oxygen consumption is calculated based on the flow through the chamber and the difference in oxygen partial pressures at the inflow and outlet ports. Carbon dioxide (CO2) efflux is also measured in parallel using a CO2 electrode. […] Rats were placed in the FoxBox apparatus (Sable Systems, Las Vegas, Nev.), allowed to acclimate and the resting oxygen consumption was measured. The oxygen consumption rates were compared to pre-dose measurements taken on each individual animal. […] Thus, the compounds of the present invention are useful in increasing oxygen consumption.

plasma cholesterol = test: Cholesterol lowering in hypercholesterolemic rats; assay type: in vivo; settings: Rattus norvegicus, po; delivered p.o. (0.5 mg/kg/d); percentage change from pre-dose cholesterol; read-out: % Cholesterol Lowering
[10] = set-up: species or system rats; settings: rat, in vivo
Method: The oral bioavailability (OBAV) of Compound 12-1, a bis POM prodrug of Compound 7, was estimated by comparison of the dose-normalized area under the curve (AUC) of the plasma concentration-time profile of Compound 7 following IV and PO administration of Compound 7 and Compound 12-1, respectively, to normal rats.
Method: Groups of non-fasted male SD rats were administered either 5 mg/kg of Compound 7 by IV bolus or 20 mg/kg of Compound 12-1 by oral gavage. Prior to drug administration, the rats were catheterized at the tail artery to facilitate blood collection. Plasma samples were obtained at pre-specified time points following dosing, extracted with 1.5 volumes of methanol, and then assayed by an LC-UV method using a C18 column eluted with a gradient of 20% to 45% v/v acetonitrile in a potassium phosphate buffer pH 6.2 over 15 min with UV absorbance monitoring at 280 nm. The AUC values were determined noncompartmentally from the plasma concentration-time plots by trapezoidal summation to the last measurable time point.
Plasma levels of compound were analyzed by HPLC and the AUCs for the i.v. dose of 5 mg/kg and the p.o. dose of 20 mg/kg were compared. The maximum OBAV for Compound 19-2 was 0.003%. Typically, compounds that are taken forward as an oral drug candidate have OBAV values of at least 15-20%, when tested in an animal model. This minimal requirement for OBAV in a genetically homogenous model system insures that exposure can be accurately monitored when humans are treated with the compound. Furthermore, in a genetically variable background such as humans, the variability for a compound with low OBAV in genetically homogenous model systems, can be widely variable, leading some subjects to have much higher than anticipated exposure, while other subjects have no exposure.

[11] = rat, in vivo, 28 days
Method: Compound 18 was administered at doses up to 5 mg/kg/d. Compound cis-13-1 was administered at doses up to 50 mg/kg/d. We reasoned that the ZDF rat, as a metabolically challenged animal model, would be more sensitive to the potential adverse cardiac effects of thyromimetics than a normal, cholesterol-fed rat. At sacrifice, heart rate, and the first derivative of left ventricular pressure (LV dP/dt) were measured with a Millar catheter inserted into the left ventricle.

[12] = Cardiovascular activity in the Sprague Dawley rat (HR, LV dP/dt, aortic pressure, heart weight); assay type: in vivo; settings: SD rats, 7 days
Source text: Method: […] The control group (n=6) was given vehicle only. […] On the 7th day after the start of dosing, animals were anesthetized with Isofluorane and the left ventricle cannulated with a high fidelity catheter tip transducer via the right carotid artery. Left ventricular pressure, its first derivative (LVdP/dt), lead I ECG, and heart rate (HR) triggered off the ECG waveform, were digitally recorded. LV dP/dt is a well accepted measure of ionotropic state. Systolic and diastolic aortic pressures were measured by retracting the catheter into the proximal aorta.

Glucose in ZDF rats = assay type: in vivo
Method: The decrease was dose dependent. Blood glucose levels at those doses corresponded to 442 mg/dL and 243 mg/dL, respectively. Similar changes were also evident at two weeks, post-treatment.

Compound: CC(C)c1cc(Oc2c(Cl)cc(CC(=O)O)cc2Cl)ccc1O [3,5-dichloro-4-[4-hydroxy-3-(1-methylethyl)phenoxy]benzeneacetic acid]
TSH levels [1]: dose-dependently lower
cholesterol levels [1]: dose-dependently lower
Lp(a) levels [2]: decrease Lp(a) levels
weight loss in animals [3]: weight loss

Compound: Cc1cc(NC(=O)C(=O)O)cc(C)c1Oc1ccc(O)c(C(C)C)c1 [CGS23425, [[4-[4-hydroxy-3-(1-methylethyl)phenoxy]-3,5-dimethylphenyl]amino]oxo acetic acid]
apoAI expression (human hepatoma cells): increased apoAI expression

increase of LV dP/dt ([4]; end-of-life): 71%
left ventricular weight ([4]; end-of-life): increased
Cardiac GPDH activity ([5]; IP, 1 mg/kg/day): increased
Heart AUC [6]: 27.6 nmol·h/g
Kidney AUC [6]: 1.1 nmol·h/g
Liver AUC [6]: 48.5 nmol·h/g
AUC ([6]; male, SD, rat, plasma): 2800 ng·h/mL
Cmax ([6]; male, SD, rat, plasma): 3490 ng/mL
Tmax ([6]; male, SD, rat, plasma): 20 min
CL/F ([6]; male, SD, rat, plasma, read-out: Cl(observed)/F (converted)): 56 mL/min/kg
Vd/F ([6]; male, SD, rat, plasma, read-out: Vz(observed)/F): 2.2 L/kg
AUMClast ([6]; plasma): 1.7683 μg * hr^2/mL
Tlast ([6]; plasma): 2 h
Heart Weight [8]: 134% of control
Compound: Cc1cc(OCC(=O)O)cc(C)c1Cc1ccc(O)c(C(C)C)c1 [Compound 17, [3,5-dimethyl-4-(4′-hydroxy-3′-iso-propylbenzyl)phenoxy]acetic acid, reference compound]
increase of systolic and diastolic blood pressure [4]: 30%
cholesterol ([4]; day 7): significant decrease in cholesterol
increase of heart rate ([4]; day 7): 40%
cholesterol ([4]; day 14): no significant decrease in cholesterol was observed
cardiac hypertrophy ([5]; IP once-a-day for seven days): cardiac hypertrophy was observed
doses that significantly decreased serum cholesterol (serum cholesterol): 0.1 to 1 mg/kg/day
Liver GPDH [7]: 426% of control
Heart GPDH (heart mGPDH activity): 277% of control

Compound: N[C@@H](Cc1ccc(Oc2cc(I)c(O)c(I)c2)c(I)c1)C(=O)O [Compound T3, 3,3′,5′-triiodothyronine, reference compound]
reduction in liver triglycerides (liver triglycerides): 4%
Liver GPDH [7]: 406% of control
Heart GPDH (heart mGPDH activity): 284% of control
Heart Weight [8]: 146% of control

OBAV when AUC's of Compound cis-13-1 are used [10]: 25%
OBAV when comparing the AUC's of Compound 7 [10]: 40-50%
TI Improvement over Compound 18, ED15 HR ([11]; ZDF): >39
TI Improvement over Compound 18, ED25 LV dP/dt ([11]; ZDF): >102
calculated TI with respect to LV dP/dt [11]: > 10,000
Compound: Cc1cc(OC[P@@]2(=O)OCC[C@@H](c3cccc(Cl)c3)O2)cc(C)c1Cc1ccc(O)c(C(C)C)c1 [Compound cis-13-1]
Oxygen consumption following treatment, % of the pre-dose rate ([9]; 3 mg/kg/d orally for 14 days): 116%
Oxygen consumption following treatment, % of the pre-dose rate ([9]; 10 mg/kg/d orally for 14 days): 125%
Oxygen consumption following treatment, % of the pre-dose rate ([9]; 30 mg/kg/d orally for 14 days): 132%
change in vivo at 0.5 mg/kg/day (plasma cholesterol): -31.8%
calculated TI with respect to heart rate [11]: > 3900
HR, LV dP/dt, systolic and diastolic aortic pressures ([12]; oral gavage 1, 5, 10, 30, 50 mg/kg/day): not significantly different compared to vehicle treated animals
heart weight or heart weight/body weight ratios ([12]; oral gavage 1-50 mg/kg/day): no significant changes in heart weight
water consumption (Glucose in ZDF rats): dose-dependent decrease in the water consumption
Plasma glucose at sacrifice (Glucose in ZDF rats; 4 weeks of treatment, decreased from 618 mg/dL): 437 mg/dL
Blood glucose levels (Glucose in ZDF rats; 4 weeks of treatment, versus 442 mg/dL): 243 mg/dL
